Results from ChEMBL document CHEMBL1201862, “PubChem BioAssay data set” (2004).
The source made the active and inactive calls.

Assays:
[1] = molecular target: T1, Histone-lysine N-methyltransferase NSD2 (Homo sapiens, UniProt O96028); assay type: biochemical
T1 sequence (O96028 whole entry): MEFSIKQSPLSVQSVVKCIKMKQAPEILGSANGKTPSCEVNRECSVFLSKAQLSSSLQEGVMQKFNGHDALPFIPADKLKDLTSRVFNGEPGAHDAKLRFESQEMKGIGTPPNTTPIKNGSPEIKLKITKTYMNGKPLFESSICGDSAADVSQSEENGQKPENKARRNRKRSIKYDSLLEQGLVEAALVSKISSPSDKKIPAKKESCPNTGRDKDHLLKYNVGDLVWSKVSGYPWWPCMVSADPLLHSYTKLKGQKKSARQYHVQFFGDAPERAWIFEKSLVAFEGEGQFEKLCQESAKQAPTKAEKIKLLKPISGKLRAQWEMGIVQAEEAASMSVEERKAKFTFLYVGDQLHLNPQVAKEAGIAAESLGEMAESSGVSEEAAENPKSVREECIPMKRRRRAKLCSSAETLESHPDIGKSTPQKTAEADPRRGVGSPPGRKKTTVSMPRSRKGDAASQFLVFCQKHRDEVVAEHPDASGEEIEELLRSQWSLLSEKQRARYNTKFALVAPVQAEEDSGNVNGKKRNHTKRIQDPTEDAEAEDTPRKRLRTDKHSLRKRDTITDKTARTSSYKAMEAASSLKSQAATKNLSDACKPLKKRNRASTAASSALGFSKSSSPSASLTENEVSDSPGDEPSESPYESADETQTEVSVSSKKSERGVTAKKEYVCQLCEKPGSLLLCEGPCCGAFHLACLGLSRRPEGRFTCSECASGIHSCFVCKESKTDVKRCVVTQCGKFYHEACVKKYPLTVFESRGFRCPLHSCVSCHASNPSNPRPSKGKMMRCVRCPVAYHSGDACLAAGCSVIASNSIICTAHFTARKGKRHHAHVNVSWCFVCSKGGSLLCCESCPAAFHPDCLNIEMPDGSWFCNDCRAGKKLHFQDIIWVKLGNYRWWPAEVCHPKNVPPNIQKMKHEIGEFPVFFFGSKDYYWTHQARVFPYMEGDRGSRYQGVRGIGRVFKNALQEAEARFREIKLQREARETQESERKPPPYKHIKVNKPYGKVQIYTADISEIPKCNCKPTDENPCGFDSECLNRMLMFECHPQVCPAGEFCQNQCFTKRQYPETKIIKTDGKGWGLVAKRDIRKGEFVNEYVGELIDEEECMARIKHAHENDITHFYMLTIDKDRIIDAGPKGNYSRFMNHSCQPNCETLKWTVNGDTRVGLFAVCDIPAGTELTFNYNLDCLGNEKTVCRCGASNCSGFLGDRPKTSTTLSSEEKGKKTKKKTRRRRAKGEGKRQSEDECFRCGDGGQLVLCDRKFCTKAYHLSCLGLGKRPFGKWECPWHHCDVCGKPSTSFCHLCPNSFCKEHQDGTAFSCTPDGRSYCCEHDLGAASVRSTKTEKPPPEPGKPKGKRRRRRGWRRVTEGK

[2] = molecular target: Casein kinase I isoform alpha (Homo sapiens, UniProt P48729); assay type: functional
[3] = molecular target: Tyrosine-protein kinase BTK (Homo sapiens, UniProt Q06187); assay type: functional
[4] = molecular target: Tyrosine-protein kinase JAK2 (Homo sapiens, UniProt O60674); assay type: functional;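 note: JAK2 tested as one member of a kinase panel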
[5] = molecular target: Mitogen-activated protein kinase 9 (Homo sapiens, UniProt P45984); assay type: functional;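 note: value from a kinome panel profiling assay, MAPK9 panel entry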
[6] = molecular target: T2, Serine/threonine-protein kinase TAO1 (Homo sapiens, UniProt Q7L7X3); assay type: functional
T2 sequence (Q7L7X3 whole entry): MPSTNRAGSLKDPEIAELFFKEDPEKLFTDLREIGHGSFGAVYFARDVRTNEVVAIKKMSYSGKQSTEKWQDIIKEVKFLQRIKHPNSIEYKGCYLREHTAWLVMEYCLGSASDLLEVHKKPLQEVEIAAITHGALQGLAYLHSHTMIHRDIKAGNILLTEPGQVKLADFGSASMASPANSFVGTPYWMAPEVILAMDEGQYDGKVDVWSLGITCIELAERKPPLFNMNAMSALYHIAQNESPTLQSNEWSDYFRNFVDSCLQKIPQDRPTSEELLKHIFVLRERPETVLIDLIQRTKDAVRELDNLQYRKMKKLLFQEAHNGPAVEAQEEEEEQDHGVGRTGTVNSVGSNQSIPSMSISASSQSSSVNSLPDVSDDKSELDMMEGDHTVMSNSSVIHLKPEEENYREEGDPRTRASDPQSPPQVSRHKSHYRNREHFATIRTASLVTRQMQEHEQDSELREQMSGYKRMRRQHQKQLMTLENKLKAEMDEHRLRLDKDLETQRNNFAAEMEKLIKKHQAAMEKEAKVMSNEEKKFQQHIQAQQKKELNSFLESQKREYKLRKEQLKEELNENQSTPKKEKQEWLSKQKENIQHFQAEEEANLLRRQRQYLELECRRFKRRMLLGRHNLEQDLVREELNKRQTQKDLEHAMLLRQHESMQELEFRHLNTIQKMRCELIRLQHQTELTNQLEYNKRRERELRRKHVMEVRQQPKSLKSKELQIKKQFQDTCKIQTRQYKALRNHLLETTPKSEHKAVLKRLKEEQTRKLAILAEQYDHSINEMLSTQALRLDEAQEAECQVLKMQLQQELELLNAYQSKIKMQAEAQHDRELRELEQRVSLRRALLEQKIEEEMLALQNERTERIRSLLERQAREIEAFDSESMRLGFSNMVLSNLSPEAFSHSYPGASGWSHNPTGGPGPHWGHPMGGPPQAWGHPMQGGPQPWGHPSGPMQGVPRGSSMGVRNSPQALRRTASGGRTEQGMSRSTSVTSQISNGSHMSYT

Mitogen-activated protein kinase 9, sequence (P45984 whole entry): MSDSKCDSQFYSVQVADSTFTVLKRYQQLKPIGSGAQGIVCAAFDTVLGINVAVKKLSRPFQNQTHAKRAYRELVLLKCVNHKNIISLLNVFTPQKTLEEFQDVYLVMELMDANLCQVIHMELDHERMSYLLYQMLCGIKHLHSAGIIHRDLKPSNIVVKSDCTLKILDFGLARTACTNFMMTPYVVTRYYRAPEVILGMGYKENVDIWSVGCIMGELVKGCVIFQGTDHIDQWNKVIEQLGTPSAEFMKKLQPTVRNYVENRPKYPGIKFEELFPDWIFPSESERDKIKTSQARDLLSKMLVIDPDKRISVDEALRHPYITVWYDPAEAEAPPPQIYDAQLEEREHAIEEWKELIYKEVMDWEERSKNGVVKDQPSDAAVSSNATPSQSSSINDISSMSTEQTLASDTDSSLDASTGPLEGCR
Casein kinase I isoform alpha, sequence (P48729 whole entry, canonical isoform): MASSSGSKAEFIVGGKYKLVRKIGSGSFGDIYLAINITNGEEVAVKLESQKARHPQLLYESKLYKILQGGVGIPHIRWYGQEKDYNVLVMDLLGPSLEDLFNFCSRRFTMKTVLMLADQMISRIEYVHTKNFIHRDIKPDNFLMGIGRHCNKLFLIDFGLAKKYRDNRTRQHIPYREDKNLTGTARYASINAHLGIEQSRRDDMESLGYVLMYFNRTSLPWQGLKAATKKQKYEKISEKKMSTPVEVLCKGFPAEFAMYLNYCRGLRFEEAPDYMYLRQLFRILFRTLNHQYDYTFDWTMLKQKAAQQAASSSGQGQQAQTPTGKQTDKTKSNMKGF
Tyrosine-protein kinase BTK, sequence (Q06187 whole entry): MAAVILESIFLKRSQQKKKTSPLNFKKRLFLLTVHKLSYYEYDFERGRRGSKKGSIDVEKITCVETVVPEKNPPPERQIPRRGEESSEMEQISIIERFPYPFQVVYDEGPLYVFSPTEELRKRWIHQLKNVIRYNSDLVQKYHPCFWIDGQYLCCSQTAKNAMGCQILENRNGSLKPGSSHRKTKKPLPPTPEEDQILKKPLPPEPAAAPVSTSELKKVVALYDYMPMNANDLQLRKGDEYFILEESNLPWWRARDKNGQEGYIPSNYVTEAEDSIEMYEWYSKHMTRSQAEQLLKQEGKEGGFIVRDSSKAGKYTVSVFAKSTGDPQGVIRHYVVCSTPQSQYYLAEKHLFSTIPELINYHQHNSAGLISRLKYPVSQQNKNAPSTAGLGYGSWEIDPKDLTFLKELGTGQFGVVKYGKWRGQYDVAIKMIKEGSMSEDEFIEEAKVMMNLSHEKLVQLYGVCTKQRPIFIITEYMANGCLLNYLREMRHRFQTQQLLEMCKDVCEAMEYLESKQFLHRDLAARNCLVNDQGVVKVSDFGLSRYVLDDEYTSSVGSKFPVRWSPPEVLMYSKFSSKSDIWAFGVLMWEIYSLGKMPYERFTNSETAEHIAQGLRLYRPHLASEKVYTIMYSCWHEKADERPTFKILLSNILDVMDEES
Tyrosine-protein kinase JAK2, sequence (O60674 whole entry): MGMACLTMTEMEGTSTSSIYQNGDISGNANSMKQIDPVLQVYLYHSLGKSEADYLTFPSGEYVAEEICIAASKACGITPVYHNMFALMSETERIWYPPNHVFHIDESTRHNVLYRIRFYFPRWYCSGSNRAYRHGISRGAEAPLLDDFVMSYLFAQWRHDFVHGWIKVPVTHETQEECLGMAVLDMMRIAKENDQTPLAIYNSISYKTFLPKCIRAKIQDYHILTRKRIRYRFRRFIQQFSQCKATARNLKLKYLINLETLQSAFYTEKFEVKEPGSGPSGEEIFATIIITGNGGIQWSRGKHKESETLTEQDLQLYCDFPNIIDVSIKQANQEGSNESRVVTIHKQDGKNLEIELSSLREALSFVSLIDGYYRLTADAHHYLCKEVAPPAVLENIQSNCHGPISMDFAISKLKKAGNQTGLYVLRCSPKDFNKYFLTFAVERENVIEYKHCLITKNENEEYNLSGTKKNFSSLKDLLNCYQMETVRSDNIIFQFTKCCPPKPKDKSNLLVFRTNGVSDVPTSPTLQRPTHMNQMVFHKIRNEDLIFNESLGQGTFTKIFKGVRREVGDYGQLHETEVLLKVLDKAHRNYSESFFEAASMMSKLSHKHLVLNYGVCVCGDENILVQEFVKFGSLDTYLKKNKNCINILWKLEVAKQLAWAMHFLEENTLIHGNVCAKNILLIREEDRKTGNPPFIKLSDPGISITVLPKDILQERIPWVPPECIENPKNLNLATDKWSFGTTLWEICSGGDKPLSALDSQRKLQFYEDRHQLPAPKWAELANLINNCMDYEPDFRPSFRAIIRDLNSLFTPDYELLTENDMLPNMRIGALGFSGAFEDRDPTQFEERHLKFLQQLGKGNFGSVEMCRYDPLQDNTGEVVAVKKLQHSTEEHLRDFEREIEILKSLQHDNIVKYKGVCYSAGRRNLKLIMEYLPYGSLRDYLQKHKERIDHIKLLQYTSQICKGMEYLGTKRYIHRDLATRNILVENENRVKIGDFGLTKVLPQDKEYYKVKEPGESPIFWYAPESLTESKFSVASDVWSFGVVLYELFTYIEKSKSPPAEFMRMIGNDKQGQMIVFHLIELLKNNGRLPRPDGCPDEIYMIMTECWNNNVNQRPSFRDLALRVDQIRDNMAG

Compound	AC50 [1]	Ki [2]	Ki [3]	Ki [4]	Ki [5]	Ki [6]
CCN(CC)CCOc1ccc2c(c1)C(=NNC(=O)c1ccccn1)c1cc(OCCN(CC)CC)ccc1-2	10300 nM (active)	–	–	–	–	–
CN(C)c1cc(N/N=C\c2ccccc2)nc(N(C)C)n1	4930 nM (active)	–	–	–	–	–
O=C1Nc2cc(-c3ccc(O)cc3)ccc2C1=Cc1ccc[nH]1	–	> 3980 nM (inactive)	> 6310 nM (inactive)	5.01 nM (active)	> 3980 nM (inactive)	398 nM (active)
NC(COc1cncc(-c2ccc3c(c2)C(=Cc2ccc[nH]2)C(=O)N3)c1)Cc1ccccc1 (configuration not stated)	–	2000 nM (active)	3980 nM (active)	63.1 nM (active)	1260 nM (active)	251 nM (active)
